Test results as given in patent US10407423B2, “Compounds as inhibitors of DNA methyltransferases” (FUNDACIÓN PARA LA INVESTIGACIÓN MÉDICA APLICADA, priority 2015, dated 2019).

Key:
[1] = system: OCI-Ly10 cells (ABC-DLBCL); assay: Cell proliferation assay (CellTiter 96 Aqueous One), OCI-Ly10; format: cell-based; details: Homo sapiens, 48 hours of treatment
Method: (§1) Cell proliferation was analyzed after 48 hours of in vitro treatment using the CellTiter 96 Aqueous One Solution Cell Proliferation Assay (Promega, Madison, W). This is a colorimetric method for determining the number of viable cells in proliferation.
(§2) For the assay, suspension cells were cultured by triplicate at a density of 1×10^6 cells/ml in 96-well plates (100.000 cells/well, 100 μl/well), except for OCI-Ly3 and OCI-Ly10 cell lines which were cultured at a density of 0.5×10^6 cells/ml (50,000 cells/well, 100 μl/well) and for HepG2, Hep3B and PLC/PRF/5 cell lines which were cultured at a density of 3000 cells/well, 100 μl/well). Adherent cells were obtained from 80-90% confluent flasks and 100 μl of cells were seeded at a density of 5000 cells/well in 96-well plates by triplicate. Before addition of the compounds, adherent cells were allowed to attach to the bottom of the wells for 12 hours. […]
(§3) After 48 hours of treatment, plates with suspension cells were centrifuged at 800 g for 10 minutes and medium was removed. […] After 1-3 hours of incubation at 37° C., absorbance was measured at 490 nm in a 96-well plate reader. The background absorbance was measured in wells with only cell line medium and solution reagent. Data was calculated as a percentage of total absorbance of treated cell/absorbance of non treated cells. […]

[2] = system: OCI-Ly3 cells (ABC-DLBCL); assay: Cell proliferation assay (CellTiter 96 Aqueous One), OCI-Ly3; format: cell-based; details: Homo sapiens, 48 hours of treatment
Method: as §1, §2, §3

[3] = system: HepG2 cells (hepatocellular carcinoma); assay: Cell proliferation assay (CellTiter 96 Aqueous One), HepG2; format: cell-based; details: HepG2 (HCC), 48 hours of treatment
Method: as §1
(§4) For the assay, suspension cells were cultured by triplicate at a density of 1×10^6 cells/ml in 96-well plates (100.000 cells/well, 100 μl/well), except for OCI-Ly3 and OCI-Ly10 cell lines which were cultured at a density of 0.5×10^6 cells/ml (50,000 cells/well, 100 μl/well) and for HepG2, Hep3B and PLC/PRF/5 cell lines which were cultured at a density of 3000 cells/well, 100 μl/well). Adherent cells were obtained from 80-90% confluent flasks and 100 μl of cells were seeded at a density of 5000 cells/well in 96-well plates by triplicate. Before addition of the compounds, adherent cells were allowed to attach to the bottom of the wells for 12 hours. In all cases, only the 60 inner wells were used to avoid any border effects.
(§5) After 48 hours of treatment, plates with suspension cells were centrifuged at 800 g for 10 minutes and medium was removed. The plates with adherent cells were flicked to remove medium. Then, cells were incubated with 100 μl/well of medium and 20 μl/well of CellTiter 96 Aqueous One Solution reagent. After 1-3 hours of incubation at 37° C., absorbance was measured at 490 nm in a 96-well plate reader. The background absorbance was measured in wells with only cell line medium and solution reagent. Data was calculated as a percentage of total absorbance of treated cell/absorbance of non treated cells.
(§6) These cancer cell lines and primary cultures correspond to acute lymphocytic leukemia (ALL), CEMO-1, to activated B-cell-like diffuse large B-cell lymphoma (ABC-DLBCL), OCI-Ly3 and OCI-Ly10 and to hepatocellular carcinoma cells (HCC), HepG2, Hep3B and PLC/PRF/5.

[4] = system: CEMO-1 cells (acute lymphocytic leukemia, ALL); assay: Cell proliferation assay (CellTiter 96 Aqueous One), CEMO-1; format: cell-based; details: CEMO-1 (ALL), 48 hours of treatment
Method: as §1, §4, §5, §6

[5] = target: human G9a enzyme (Homo sapiens (Human), UniProt Q96KQ7); assay: G9a enzyme activity assay (TR-FRET); format: biochemical; details: 1 hour at room temperature
Chain of human G9a enzyme (Q96KQ7 whole entry): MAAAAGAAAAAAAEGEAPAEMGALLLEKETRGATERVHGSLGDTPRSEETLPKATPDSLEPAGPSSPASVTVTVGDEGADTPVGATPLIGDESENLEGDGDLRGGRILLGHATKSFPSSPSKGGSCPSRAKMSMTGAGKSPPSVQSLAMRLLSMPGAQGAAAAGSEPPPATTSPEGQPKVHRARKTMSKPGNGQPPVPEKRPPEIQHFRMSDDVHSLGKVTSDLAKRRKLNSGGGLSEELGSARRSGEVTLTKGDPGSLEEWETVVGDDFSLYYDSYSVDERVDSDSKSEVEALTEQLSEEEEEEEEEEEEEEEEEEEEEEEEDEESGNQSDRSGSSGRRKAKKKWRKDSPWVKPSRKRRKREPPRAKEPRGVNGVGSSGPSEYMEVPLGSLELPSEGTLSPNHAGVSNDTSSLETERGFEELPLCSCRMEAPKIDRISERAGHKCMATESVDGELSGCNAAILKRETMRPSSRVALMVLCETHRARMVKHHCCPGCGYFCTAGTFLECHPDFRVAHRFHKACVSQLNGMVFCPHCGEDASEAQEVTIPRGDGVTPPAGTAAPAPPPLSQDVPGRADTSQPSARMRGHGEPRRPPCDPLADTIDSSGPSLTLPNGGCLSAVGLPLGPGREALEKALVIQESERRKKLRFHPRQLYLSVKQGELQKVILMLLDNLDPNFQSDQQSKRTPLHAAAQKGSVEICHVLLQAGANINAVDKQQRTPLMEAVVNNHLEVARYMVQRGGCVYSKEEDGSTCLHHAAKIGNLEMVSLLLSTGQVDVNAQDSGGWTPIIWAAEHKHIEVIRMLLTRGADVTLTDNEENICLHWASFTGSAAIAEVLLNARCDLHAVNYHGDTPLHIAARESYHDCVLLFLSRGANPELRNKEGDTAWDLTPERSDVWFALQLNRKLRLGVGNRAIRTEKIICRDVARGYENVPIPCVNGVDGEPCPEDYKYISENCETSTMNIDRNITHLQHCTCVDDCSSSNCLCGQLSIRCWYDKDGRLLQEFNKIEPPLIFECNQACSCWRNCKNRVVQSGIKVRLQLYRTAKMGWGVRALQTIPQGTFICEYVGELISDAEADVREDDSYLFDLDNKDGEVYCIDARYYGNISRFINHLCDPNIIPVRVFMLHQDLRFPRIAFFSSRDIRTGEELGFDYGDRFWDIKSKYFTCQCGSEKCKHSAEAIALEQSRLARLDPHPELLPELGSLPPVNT
Method: G9a Enzyme Activity Assay
The biochemical assay to measure G9a enzyme activity relies on time-resolved fluorescence energy transfer (TR-FRET) between europium cryptate (donor) and XL665 (acceptor). TR-FRET is observed when biotinylated histone monomethyl-H3K9 peptide is incubated with cryptate-labeled anti-dimethyl-histone H3K9 antibody (CisBio Cat#61KB2KAE) and streptavidin XL665 (CisBio Cat#610SAXLA), after enzymatic reaction of G9a.
The human G9a enzyme expressed in a baculovirus infected Sf9 cell expression system was obtained from BPS Biosciences (Cat. #51001). Enzyme activity assay was carried out in a white 384-well plate in a final volume of 20 μl, as follow: • 4 μl of vehicle or studied compound 2.5× concentrated prepared in assay buffer (50 mM Tris-HCl, 10 mM NaCl, 4 mM DTT, 0.01% Tween-20 pH9). Final percentage of DMSO was 0.5%. • 2 μl of 1 nM G9a enzyme diluted in assay buffer. Final concentration was 0.2 nM. • Start the reaction by adding 4 μl of substrate mixture containing 20 μM S-adenosylmethionine and 40 nM biotinylated histone monomethyl-H3K9 peptide. • Reaction was carried out during 1 hour at room temperature. • Enzyme activity was stopped by adding 5 μl of cryptate-labeled anti-dimethyl-histone H3K9 antibody. Final concentration 150 nM. • Then, add 5 μl of streptavidin XL665 beads. Final concentration of 16 μM. • Read the plate after 1 hour of incubation at room temperature.
(§7) For each well, fluorescence was measured at 620 nm and 665 nm. A ratio (665 nm/620 nm) was then calculated in order to minimize medium interferences. Positive control was obtained in the presence of the vehicle of the compounds. Negative control was obtained in the absence of G9a enzyme activity. Calculated IC50 values were determined using GraphPrism using 4-parameters inhibition curve.

[6] = target: human DNMT1 (Homo sapiens (Human), UniProt P26358); assay: DNMT1 enzyme activity assay (TR-FRET, EPIgeneous methyltransferase assay); format: biochemical; details: 15 minutes at 37° C.
Chain of human DNMT1 (P26358 whole entry): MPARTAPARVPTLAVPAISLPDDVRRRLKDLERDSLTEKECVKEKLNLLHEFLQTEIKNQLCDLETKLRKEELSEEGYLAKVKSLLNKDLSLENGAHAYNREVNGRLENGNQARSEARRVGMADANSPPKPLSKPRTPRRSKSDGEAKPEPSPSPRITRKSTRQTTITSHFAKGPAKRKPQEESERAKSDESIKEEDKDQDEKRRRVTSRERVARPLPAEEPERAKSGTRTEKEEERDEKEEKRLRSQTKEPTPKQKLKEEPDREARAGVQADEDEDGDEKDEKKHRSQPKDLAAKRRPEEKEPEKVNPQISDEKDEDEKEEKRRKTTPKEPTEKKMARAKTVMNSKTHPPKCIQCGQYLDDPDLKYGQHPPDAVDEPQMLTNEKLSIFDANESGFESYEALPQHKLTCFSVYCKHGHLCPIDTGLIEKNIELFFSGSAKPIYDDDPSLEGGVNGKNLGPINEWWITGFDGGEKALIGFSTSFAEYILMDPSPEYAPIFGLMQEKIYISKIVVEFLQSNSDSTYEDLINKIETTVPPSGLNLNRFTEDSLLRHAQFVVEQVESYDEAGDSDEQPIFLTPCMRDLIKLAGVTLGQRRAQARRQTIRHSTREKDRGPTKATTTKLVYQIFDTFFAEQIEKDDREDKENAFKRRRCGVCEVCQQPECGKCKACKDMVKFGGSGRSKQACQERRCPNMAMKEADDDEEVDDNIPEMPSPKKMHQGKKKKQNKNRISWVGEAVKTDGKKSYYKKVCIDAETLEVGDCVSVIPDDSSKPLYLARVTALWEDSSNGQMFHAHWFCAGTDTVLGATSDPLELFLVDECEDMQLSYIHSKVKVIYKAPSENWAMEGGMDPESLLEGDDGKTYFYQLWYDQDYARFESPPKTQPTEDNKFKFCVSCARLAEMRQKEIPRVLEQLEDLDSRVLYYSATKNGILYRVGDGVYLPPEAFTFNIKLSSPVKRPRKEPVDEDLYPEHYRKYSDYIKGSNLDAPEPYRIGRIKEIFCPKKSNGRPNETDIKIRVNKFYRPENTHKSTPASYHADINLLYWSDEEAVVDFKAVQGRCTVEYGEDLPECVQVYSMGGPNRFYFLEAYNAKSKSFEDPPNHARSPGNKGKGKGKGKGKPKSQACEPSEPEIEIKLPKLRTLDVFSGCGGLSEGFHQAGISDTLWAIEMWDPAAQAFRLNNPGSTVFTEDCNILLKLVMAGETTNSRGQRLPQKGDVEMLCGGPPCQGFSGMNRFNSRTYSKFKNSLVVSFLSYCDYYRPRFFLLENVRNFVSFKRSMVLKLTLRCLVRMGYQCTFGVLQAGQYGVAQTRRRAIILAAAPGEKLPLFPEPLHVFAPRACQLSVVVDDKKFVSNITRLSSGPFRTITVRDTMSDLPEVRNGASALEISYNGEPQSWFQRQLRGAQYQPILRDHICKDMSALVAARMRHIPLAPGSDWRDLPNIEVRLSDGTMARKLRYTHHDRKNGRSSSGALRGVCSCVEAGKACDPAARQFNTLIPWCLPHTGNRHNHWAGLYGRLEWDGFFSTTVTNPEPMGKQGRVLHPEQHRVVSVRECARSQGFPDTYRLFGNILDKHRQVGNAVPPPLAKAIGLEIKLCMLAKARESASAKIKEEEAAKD
Method: DNMT1 Enzyme Activity Assay
The biochemical assay to measure DNMT1 enzyme activity relies on time-resolved fluorescence energy transfer (TR-FRET) between lumi4-Tb (donor) and d2 (acceptor) using the EPlgeneous methyltransferase assay (CisBio Cat#62SAHPEB). TR-FRET is observed when antibody specific to S-adenosylhomocysteine labeled with Lumi4-Tb is incubated with d2-labeled S-adenosylhomocysteine. TR-FRET signal is inversely proportional to the concentration of SAH, product of DNMT1 enzyme activity, in the sample. The human DNMT1 was obtained from Reaction Biology Corp. (Cat# DMT-21-124).
Enzyme activity assay was carried out in a white 384-well plate in a final volume of 20 μl, as follow: • 4 μl of vehicle or studied compound 2.5× concentrated prepared in assay buffer (50 mM Tris-HCl, 1 mM EDTA, 1 mM DTT, 0.1% Triton X-100, 5% glycerol pH 7.5). Final percentage of DMSO was 0.5%. • 2 μl of […] DNMT1 enzyme diluted in assay buffer. Final concentration was 20 nM. • Start the reaction by adding 4 μl of substrate mixture containing 1 μM S-adenosylmethionine and 1 μM poly-deoxy inosine poly-deoxy cytosine (pdI-pdC) DNA. • Reaction was carried out during 15 minutes at 37° C. • Enzyme activity was stopped by adding 2 μl of buffer one of the EPIgeneous methyltransferase assay. • After 10 minutes at room temperature, it was added 4 μl of antibody specific to S-adenosylhomocysteine labeled with Lumi4-Tb 50× diluted in buffer two of the EPIgeneous methyltransferase assay. • Add 4 μl of d2-labeled S-adenosylhomocysteine 31× diluted in buffer two of the EPIgeneous methyltransferase assay. • Read the plate after 1 hour of incubation at room temperature.
as §7

[7] = system: Hep3B cells (hepatocellular carcinoma); assay: Cell proliferation assay (CellTiter 96 Aqueous One), Hep3B; format: cell-based; details: Hep3B (HCC), 48 hours of treatment
Method: as §1, §4, §5, §6

[8] = system: PLC/PRF/5 cells (hepatocellular carcinoma); assay: Cell proliferation assay (CellTiter 96 Aqueous One), PLC/PRF/5; format: cell-based; details: PLC/PRF/5 (HCC), 48 hours of treatment
Method: as §1, §4, §5, §6

Row | SMILES | GI50 [1] | GI50 [2] | GI50 ([3]; Homo sapiens) | GI50 [4] | IC50 [5] | IC50 [6] | GI50 ([7]; Homo sapiens) | GI50 ([8]; Homo sapiens) | GI50 [3] | GI50 [7] | GI50 [8]
1 | COc1cc2c(cc1OCCCN1CCCC1)nc(-c1ccc(C)o1)c1cc(CC3CCN(C)CC3)[nH]c12 [Compound 1-02, 8-methoxy-4-(5-methyl-2-furyl)-2-[(1-methyl-4-piperidyl)methyl]-7-(3-pyrrolidin-1-ylpropoxy)-1H-pyrrolo[3,2-c]quinoline] | 1000 to 10000 nM | 100 to 1000 nM | 1000 to 10000 nM | 100 to 1000 nM | 100 to 500 nM | 100 to 500 nM | 1000 to 10000 nM | 100 to 1000 nM | – | – | –
2 | COc1cc2c(cc1OCCCN1CCCC1)nc(-c1ccc(C)o1)c1cc(CC3CCN(C(C)C)CC3)[nH]c12 [Compound 1-03, 2-[(1-isopropyl-4-piperidyl)methyl]-8-methoxy-4-(5-methyl-2-furyl)-7-(3-pyrrolidin-1-ylpropoxy)-1H-pyrrolo[3,2-c]quinoline] | – | – | 1000 to 10000 nM | 1000 to 10000 nM | 100 to 500 nM | 500 to 1000 nM | 1000 to 10000 nM | 100 to 1000 nM | – | – | –
3 | CCc1ccc(-c2nc3cc(OCCCN4CCCC4)c(OC)cc3c3[nH]c(CC4CCN(C)CC4)cc23)o1 [Compound 1-04] | – | – | – | 100 to 1000 nM | 100 to 500 nM | 500 to 1000 nM | – | – | 1000 to 10000 nM | 1000 to 10000 nM | 100 to 1000 nM
4 | COc1cc2c3c(c(-c4ccc(C)o4)nc2cc1OCCCN1CCCC1)CCC(CC1CCN(C)CC1)N3 (centres unmarked) [Compound 2-06, 9-methoxy-5-(5-methyl-2-furyl)-2-[(1-methyl-4-piperidyl)methyl]-8-(3-pyrrolidin-1-ylpropoxy)-1,2,3,4-tetrahydrobenzo[h][1,6]naphthyridine] | – | – | ≥ 10000 nM | 1000 to 10000 nM | < 100 nM | 100 to 500 nM | ≥ 10000 nM | 1000 to 10000 nM | – | – | –
5 | COc1cc2c3c(c(-c4ccc(C)o4)nc2cc1OCCCN1CCCC1)CCC(CC1CCN(C2CC2)CC1)N3 (centres unmarked) [Compound 2-07, 2-[(1-cyclopropyl-4-piperidyl)methyl]-9-methoxy-5-(5-methyl-2-furyl)-8-(3-pyrrolidin-1-ylpropoxy)-1,2,3,4-tetrahydrobenzo[h][1,6]naphthyridine] | – | – | 1000 to 10000 nM | 1000 to 10000 nM | < 100 nM | 500 to 1000 nM | 1000 to 10000 nM | 1000 to 10000 nM | – | – | –
6 | COc1cc2c3c(c(-c4ccc(C)o4)nc2cc1OCCCN1CCCC1)CCC(CC1CCN(C(C)C)CC1)N3 (centres unmarked) [Compound 2-08, 2-[(1-isopropyl-4-piperidyl)methyl]-9-methoxy-5-(5-methyl-2-furyl)-8-(3-pyrrolidin-1-ylpropoxy)-1,2,3,4-tetrahydrobenzo[h][1,6]naphthyridine] | – | – | 1000 to 10000 nM | 1000 to 10000 nM | < 100 nM | 500 to 1000 nM | 1000 to 10000 nM | 1000 to 10000 nM | – | – | –
